Where a name gives a salt, the structure may show the parent alone.
Legend:
[1] = test system: human Hep G2 cells (ATCC HB-8065); experiment: Cytotoxicity in Hep G2 cells (CellTiter-Glo); format: cell-based; details: Hep G2 cells, 100 μM test article, 24-hour exposure
SARS-CoV-2 PLpro = molecular target: T1, SARS-CoV-2 PLpro (Severe acute respiratory syndrome coronavirus 2, UniProt P0DTD1); experiment: biochemical; details: 60 nM papain-like protease, 50 μM Z-RLRGG-AMC, pH 7.5, 37° C.; read-out: SARS-CoV-2 PLpro IC50
T1 construct: containing 60 nM papain-like protease

SMILES | % Cell Viability [1] [%] | IC50 (SARS-CoV-2 PLpro) [µM]
C[C@@H](NC(=O)c1cccc(N2CCN(C)CC2)c1)c1cccc2ccccc12 [Example 2, 3-(4-Methylpiperazin-1-yl)-N-[(1R)-1-(1-naphthyl)ethyl]benzamide] | 20.3 | < 2
Cc1ccc(C2CC2)cc1C(=O)N[C@H](C)c1cccc2ccccc12 [Example 4, 5-Cyclopropyl-2-methyl-N-[(1R)-1-(1-naphthyl)ethyl]benzamide] | 56.8 | < 5
C[C@@H](NC(=O)c1cccc(C2CCNCC2)c1)c1cccc2ccccc12 [Example 6, N-[(1R)-1-(1-Naphthyl)ethyl]-3-(4-piperidyl)benzamide Hydrochloride Salt] | 0.6 | < 20
COc1ccc([C@@H](C)NC(=O)c2cc(N3C[C@@H]4C[C@H]3CN4C)ccc2C)cc1OC [Example 12, N-[(1R)-1-(3,4-Dimethoxyphenyl)ethyl]-2-methyl-5-[(1S,4S)-5-methyl-2,5-diazabicyclo[2.2.1]heptan-2-yl]benzamide] | 91.1 | < 5
COc1ccc([C@@H](C)NC(=O)c2cc(N3CCCN(C)CC3)ccc2C)cc1OC [Example 13, N-[(1R)-1-(3,4-Dimethoxyphenyl)ethyl]-2-methyl-5-(4-methyl-1,4-diazepan-1-yl)benzamide] | 103.8 | < 10
Cc1ccc(N2CCN(C)CC2)nc1C(=O)N[C@H](C)c1cccc2ccccc12 [Example 15, 3-Methyl-6-(4-methylpiperazin-1-yl)-N-[(1R)-1-(1-naphthyl)ethyl]pyridine-2-carboxamide hydrochloride] | 76.1 | < 10
Cc1ccc(N2CCC(N)CC2)cc1C(=O)N[C@H](C)c1cccc2ccccc12 [Example 16, 5-(4-Amino-1-piperidyl)-2-methyl-N-[(1R)-1-(1-naphthyl)ethyl]benzamide] | 1.1 | < 5
Cc1ccc(N2CC3(CNC3)C2)cc1C(=O)N[C@H](C)c1cccc2ccccc12 [Example 17, 5-(2,6-Diazaspiro[3.3]heptan-2-yl)-2-methyl-N-[(1R)-1-(1-naphthyl)ethyl]benzamide] | 34.7 | < 5
COc1ccc([C@@H](C)NC(=O)c2cc(N3C[C@@H]4C[C@H]3CN4)ccc2C)cc1OC [Example 18, 5-[(1S,4S)-2,5-Diazabicyclo[2.2.1]heptan-2-yl]-N-[(1R)-1-(3,4-dimethoxyphenyl)ethyl]-2-methyl-benzamide] | 119.3 | < 20
Cc1ccc(N2CCN[C@@H](C(C)C)C2)cc1C(=O)N[C@H](C)c1cccc2ccccc12 [Example 19, 5-[(3S)-3-Isopropylpiperazin-1-yl]-2-methyl-N-[(1R)-1-(1-naphthyl)ethyl]benzamide] | 1.0 | < 2
Cc1ccc(N2CC3(CN(CCO)C3)C2)cc1C(=O)N[C@H](C)c1cccc2ccccc12 [Example 20, 5-[6-(2-Hydroxyethyl)-2,6-diazaspiro[3.3]heptan-2-yl]-2-methyl-N-[(1R)-1-(1-naphthyl)ethyl]benzamide] | 94.3 | < 5
Cc1ccc(N2CCN(C)CC2)cc1C(=O)N[C@H](C)c1cccc2ccccc12 [Example 21, 2-Methyl-5-(4-methylpiperazin-1-yl)-N-[(1R)-1-(1-naphthyl)ethyl]benzamide] | 56.9 | < 2
Cc1ccc(N2CCN(C)CC2)cc1C(=O)N[C@H](C)c1cccc(Br)c1 [Example 22, N-[(1R)-1-(3-Bromophenyl)ethyl]-2-methyl-5-(4-methylpiperazin-1-yl)benzamide] | 65.5 | < 5
COc1ccc([C@@H](C)NC(=O)c2cc(N3CCN(C)CC3)ccc2C)cc1OC [Example 23, N-[(1R)-1-(3,4-Dimethoxyphenyl)ethyl]-2-methyl-5-(4-methylpiperazin-1-yl)benzamide] | 87.3 | < 2
Cc1ccc(N2CCN(C)CC2)cc1C(=O)N[C@H](C)c1ccc(Br)cc1 [Example 24, N-[(1R)-1-(4-Bromophenyl)ethyl]-2-methyl-5-(4-methylpiperazin-1-yl)benzamide] | 70.7 | < 10
Cc1ccc(N2CCN(C)CC2)cc1C(=O)N[C@H](C)c1cccc(F)c1 [Example 25, N-[(1R)-1-(3-Fluorophenyl)ethyl]-2-methyl-5-(4-methylpiperazin-1-yl)benzamide] | 95.2 | < 20
Cc1ccc(N2CCS(=O)(=O)CC2)cc1C(=O)N[C@H](C)c1cccc2ccccc12 [Example 26, 5-(1,1-Dioxo-1,4-thiazinan-4-yl)-2-methyl-N-[(1R)-1-(1-naphthyl)ethyl]benzamide] | 82.8 | < 100
Cc1ccc(N2CCN(C)CC2)cc1C(=O)N[C@H](C)c1cccc(-c2ccccc2)c1 [Example 27, 2-Methyl-5-(4-methylpiperazin-1-yl)-N-[(1R)-1-(3-phenylphenyl)ethyl]benzamide] | 1.0 | < 2

SMILES | % Cell Viability [1] [%] | IC50 (SARS-CoV-2 PLpro) [µM]
COc1cccc([C@@H](C)NC(=O)c2cc(N3CCN(C)CC3)ccc2C)c1 [Example 29, N-[(1R)-1-(3-Methoxyphenyl)ethyl]-2-methyl-5-(4-methylpiperazin-1-yl)benzamide] | 100 | < 5
COc1ccc([C@@H](C)NC(=O)c2cc(N3CCN(C)CC3)ccc2C)cc1 [Example 30, N-[(1R)-1-(4-Methoxyphenyl)ethyl]-2-methyl-5-(4-methylpiperazin-1-yl)benzamide] | 102.3 | < 10
COc1cc(OC)cc([C@@H](C)NC(=O)c2cc(N3CCN(C)CC3)ccc2C)c1 [Example 31, N-[(1R)-1-(3,5-Dimethoxyphenyl)ethyl]-2-methyl-5-(4-methylpiperazin-1-yl)benzamide] | 90.6 | < 5
COc1ccc([C@@H](C)NC(=O)c2cc(N3CCN(CCO)CC3)ccc2C)cc1OC [Example 32, N-[(1R)-1-(3,4-Dimethoxyphenyl)ethyl]-5-[4-(2-hydroxyethyl)piperazin-1-yl]-2-methyl-benzamide] | 103.5 | < 5
Cc1ccc(N2CCN(C)CC2)cc1C(=O)N[C@H](C)c1cccc2c1OCO2 [Example 33, N-[(1R)-1-(1,3-Benzodioxol-4-yl)ethyl]-2-methyl-5-(4-methylpiperazin-1-yl)benzamide hydrochloride salt] | 95.5 | < 10
Cc1ccc(N2CCN(C)CC2)cc1C(=O)N[C@H](C)c1cccc(C#N)c1 [Example 34, N-[(1R)-1-(3-Cyanophenyl)ethyl]-2-methyl-5-(4-methylpiperazin-1-yl)benzamide] | 97.8 | < 10
COc1ccc([C@@H](C)NC(=O)c2cc(N3CC4CNCC4C3)ccc2C)cc1OC (stereo partly drawn) [Example 36, 5-(2,3,3a,4,6,6a-Hexahydro-1H-pyrrolo[3,4-c]pyrrol-5-yl)-N-[(1R)-1-(3,4-dimethoxyphenyl)ethyl]-2-methyl-benzamide] | 98.0 | < 2
Cc1nnc(-c2cccc([C@@H](C)NC(=O)c3cc(N4CCN(C)CC4)ccc3C)c2)s1 [Example 39, 2-Methyl-5-(4-methylpiperazin-1-yl)-N-[(1R)-1-[3-(5-methyl-1,3,4-thiadiazol-2-yl)phenyl]ethyl]benzamide] | 90.5 | < 2
COc1ccc(-c2cccc([C@@H](C)NC(=O)c3cc(N4CCN(C)CC4)ccc3C)c2)cc1 [Example 40, N-[(1R)-1-[3-(4-Methoxyphenyl)phenyl]ethyl]-2-methyl-5-(4-methylpiperazin-1-yl)benzamide] | 0.9 | < 2
Cc1ccc(N2CCN(C)CC2)cc1C(=O)N[C@H](C)c1cccc(-c2ccc(C(=O)O)cc2)c1 [Example 41] | 110.1 | < 5
Cc1ccc(N2CCN(C)CC2)cc1C(=O)N[C@H](C)c1cccc(-c2cccc(CO)c2)c1 [Example 42, N-[(1R)-1-[3-[3-(Hydroxymethyl)phenyl]phenyl]ethyl]-2-methyl-5-(4-methylpiperazin-1-yl)benzamide] | 64.1 | < 2
Cc1ccc(N2CCN(C)CC2)cc1C(=O)N[C@H](C)c1cccc(N2CCN(C)CC2)c1 [Example 104] | 82.7 | 
C[C@@H](NC(=O)c1ccnc(N2CCN(C)CC2)n1)c1cccc2ccccc12 [Example 316, 2-(4-Methylpiperazin-1-yl)-N-[(1R)-1-(1-naphthyl)ethyl]pyrimidine-4-carboxamide Hydrochloride Salt] |  | < 100
C[C@@H](NC(=O)c1ccnc(N2CCN(CCO)CC2)n1)c1cccc2ccccc12 [Example 317, 2-[4-(2-Hydroxyethyl)piperazin-1-yl]-N-[(1R)-1-(1-naphthyl)ethyl]pyrimidine-4-carboxamide hydrochloride salt] |  | > 100
C[C@@H](NC(=O)c1ccnc(N2CC[C@H](N)C2)n1)c1cccc2ccccc12 [Example 318, 2-[(3S)-3-Aminopyrrolidin-1-yl]-N-[(1R)-1-(1-naphthyl)ethyl]pyrimidine-4-carboxamide] |  | < 100
C[C@@H](NC(=O)c1ccnc(N2CC[C@@H](N)C2)n1)c1cccc2ccccc12 [Example 319, 2-[(3R)-3-Aminopyrrolidin-1-yl]-N-[(1R)-1-(1-naphthyl)ethyl]pyrimidine-4-carboxamide Hydrochloride Salt] |  | > 100
C[C@@H](NC(=O)c1cncc(N2CCN(C)CC2)n1)c1cccc2ccccc12 [Example 320, 6-(4-Methylpiperazin-1-yl)-N-[(1R)-1-(1-naphthyl)ethyl]pyrazine-2-carboxamide Hydrochloride Salt] |  | < 100
